Among the data in publication PMC5065787 (Bioorganic & medicinal chemistry, 2016) are kcat values, retold here.

Type in all cases: biochemical
What all share (details): error in parentheses, no unit in table (sec^−1)

One test concerns the target T1, WT h15-LOX-1 (Homo sapiens, UniProt P16050).
T1 sequence (P16050 1-662): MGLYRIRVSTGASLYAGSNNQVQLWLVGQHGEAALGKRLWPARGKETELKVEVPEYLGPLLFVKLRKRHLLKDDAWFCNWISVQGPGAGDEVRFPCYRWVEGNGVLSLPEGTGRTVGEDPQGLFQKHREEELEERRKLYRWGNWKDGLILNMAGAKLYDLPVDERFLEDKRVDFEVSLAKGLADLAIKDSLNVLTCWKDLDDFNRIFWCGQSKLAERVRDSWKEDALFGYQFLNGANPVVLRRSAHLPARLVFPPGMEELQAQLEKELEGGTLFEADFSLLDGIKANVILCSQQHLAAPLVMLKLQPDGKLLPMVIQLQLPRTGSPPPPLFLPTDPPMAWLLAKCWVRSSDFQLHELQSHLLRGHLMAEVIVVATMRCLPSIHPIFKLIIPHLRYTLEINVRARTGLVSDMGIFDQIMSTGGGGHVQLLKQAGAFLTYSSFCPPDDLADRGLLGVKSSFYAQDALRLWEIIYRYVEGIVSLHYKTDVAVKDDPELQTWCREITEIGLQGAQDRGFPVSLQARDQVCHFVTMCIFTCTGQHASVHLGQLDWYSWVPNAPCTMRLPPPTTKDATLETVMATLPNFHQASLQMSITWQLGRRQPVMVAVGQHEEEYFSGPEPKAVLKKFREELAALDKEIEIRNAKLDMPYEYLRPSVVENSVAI
Briefly: Steady-state substrate kinetics, WT.

The target in a further test is T2, h15-LOX-1 Q547L (Homo sapiens, UniProt P16050, Q547L).
T2 sequence (P16050 1-662 Q547L): T1 sequence (P16050 1-662) with Q547L
Briefly: Steady-state substrate kinetics, Q547L.

The target of another test is T3, h15-LOX-1 F414W (Homo sapiens, UniProt P16050, F414W).
T3 sequence (P16050 1-662 F414W): T1 sequence (P16050 1-662) with F414W
Briefly: Steady-state substrate kinetics, F414W.

The target of a further test is T4, h15-LOX-1 L407A (Homo sapiens, UniProt P16050, L407A).
T4 sequence (P16050 1-662 L407A): T1 sequence (P16050 1-662) with L407A
Briefly: Steady-state substrate kinetics, L407A.

Positions count from the first letter of the chain named.

For `CCCCC/C=C\C/C=C\C/C=C\C/C=C\CCCC(=O)O` [AA, arachidonic acid], the kcat at WT h15-LOX-1 was 11 (0.5); on h15-LOX-1 Q547L, 2.9 (0.1); at h15-LOX-1 F414W, 2.8 (0.08); on h15-LOX-1 L407A it was 2.5 (0.2).
